Laboratory results taken from ChEMBL document CHEMBL5104187, “Discovery of 2-(1-(3-Chloro-4-cyanophenyl)-1H-pyrazol-3-yl)acetamides as Potent, Selective, and Orally Available Antagonists Targeting the Androgen Receptor” (J Med Chem, 2022).
Calls of active or inactive are those of the source. The rule behind the calls is not given here.

Key:
Androgen receptor [1] = molecular target: T1, Androgen receptor (Homo sapiens, UniProt P10275); test: Antagonist activity at androgen receptor (unknown origin) in human LNCap-ARR2PB-eGFP cells by measuring fluorescence intensity measured after 3 days by transcriptional assay; type: cell-based
T1 sequence (P10275 whole entry): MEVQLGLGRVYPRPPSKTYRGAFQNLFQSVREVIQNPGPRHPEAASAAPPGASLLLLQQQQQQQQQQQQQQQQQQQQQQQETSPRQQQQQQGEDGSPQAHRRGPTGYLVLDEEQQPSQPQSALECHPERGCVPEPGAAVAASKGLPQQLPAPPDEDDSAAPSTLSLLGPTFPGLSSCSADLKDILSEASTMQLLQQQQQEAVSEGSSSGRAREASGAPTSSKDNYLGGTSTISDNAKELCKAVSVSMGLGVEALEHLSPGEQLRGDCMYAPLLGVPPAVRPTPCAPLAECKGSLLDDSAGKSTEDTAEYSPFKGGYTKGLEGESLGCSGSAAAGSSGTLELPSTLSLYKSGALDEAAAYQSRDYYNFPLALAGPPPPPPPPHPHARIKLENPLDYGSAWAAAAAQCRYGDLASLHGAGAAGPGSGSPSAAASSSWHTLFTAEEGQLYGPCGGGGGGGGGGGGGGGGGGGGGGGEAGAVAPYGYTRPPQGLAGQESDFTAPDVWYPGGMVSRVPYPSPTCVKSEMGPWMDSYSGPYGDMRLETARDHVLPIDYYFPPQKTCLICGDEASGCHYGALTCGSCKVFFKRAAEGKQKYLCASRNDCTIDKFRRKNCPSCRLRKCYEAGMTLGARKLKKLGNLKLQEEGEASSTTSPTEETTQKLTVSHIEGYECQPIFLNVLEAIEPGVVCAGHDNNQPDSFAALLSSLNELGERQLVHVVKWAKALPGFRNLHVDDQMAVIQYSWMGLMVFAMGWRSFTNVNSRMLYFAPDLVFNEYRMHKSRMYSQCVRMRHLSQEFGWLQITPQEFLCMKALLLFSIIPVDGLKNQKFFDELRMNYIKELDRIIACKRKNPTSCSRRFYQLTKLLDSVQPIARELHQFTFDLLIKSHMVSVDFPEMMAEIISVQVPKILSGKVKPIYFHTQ

LNCaP [2] = test: Cytotoxicity against human LNCAP cells assessed as inhibition of cell proliferation by MTT assay; type: functional, cell-based
[3] = Cytotoxicity against human Chang liver cells assessed as inhibition of cell proliferation by MTT assay; type: toxicity, cell-based
[4] = Cytotoxicity against human GES1 cells assessed as inhibition of cell proliferation by MTT assay; type: toxicity, cell-based
[5] = Inhibition of PSA secretion in human LNCaP ARR2PB-eGFP cells measured after 3 days by immuno assay; type: functional, cell-based; conditions: 72 h
[6] = Antagonist activity at mineralocorticoid receptor (unknown origin) transfected in PC-3 cells assessed as inhibition of […]-stimulated transcriptional activity after 3 days by dual luciferase reporter assay; type: cell-based; conditions: Homo sapiens, PC-3, 72 h
Androgen receptor [7] = molecular target: T1, Androgen receptor
Androgen receptor [8] = molecular target: T2, Androgen receptor (Homo sapiens, UniProt P10275, F877L); test: Antagonist activity at androgen receptor F877L mutant (unknown origin) expressed in PC-3 cells assessed as inhibition of transcriptional activity measured after 24 hrs by dual luciferase assay; type: cell-based
T2 sequence (P10275 whole entry F877L): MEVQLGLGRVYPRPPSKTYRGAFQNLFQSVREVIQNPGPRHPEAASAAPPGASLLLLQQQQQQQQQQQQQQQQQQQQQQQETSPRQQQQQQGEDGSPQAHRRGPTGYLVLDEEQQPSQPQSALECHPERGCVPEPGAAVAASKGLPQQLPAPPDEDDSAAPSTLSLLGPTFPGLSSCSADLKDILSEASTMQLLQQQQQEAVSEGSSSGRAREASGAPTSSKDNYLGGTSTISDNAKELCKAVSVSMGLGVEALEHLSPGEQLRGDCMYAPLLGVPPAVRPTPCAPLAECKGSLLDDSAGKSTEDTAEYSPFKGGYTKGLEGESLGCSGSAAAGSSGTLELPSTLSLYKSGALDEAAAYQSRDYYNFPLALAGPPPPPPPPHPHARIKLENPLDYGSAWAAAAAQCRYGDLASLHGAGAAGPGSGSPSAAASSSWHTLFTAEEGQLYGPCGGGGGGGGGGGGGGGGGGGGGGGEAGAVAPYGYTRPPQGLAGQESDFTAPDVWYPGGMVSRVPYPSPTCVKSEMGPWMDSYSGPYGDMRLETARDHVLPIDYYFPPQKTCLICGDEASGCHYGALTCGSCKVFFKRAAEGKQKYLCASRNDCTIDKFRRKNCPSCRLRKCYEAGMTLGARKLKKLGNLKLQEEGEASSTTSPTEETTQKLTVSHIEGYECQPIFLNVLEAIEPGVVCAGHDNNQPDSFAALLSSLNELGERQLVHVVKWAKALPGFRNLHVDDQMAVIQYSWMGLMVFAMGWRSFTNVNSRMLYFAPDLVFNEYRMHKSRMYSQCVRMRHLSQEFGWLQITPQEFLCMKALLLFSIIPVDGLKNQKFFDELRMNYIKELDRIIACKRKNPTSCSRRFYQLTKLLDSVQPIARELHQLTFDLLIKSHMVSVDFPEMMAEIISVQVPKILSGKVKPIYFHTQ

Androgen receptor [9] = molecular target: T3, Androgen receptor (Homo sapiens, UniProt P10275, F877L/T878A); test: Antagonist activity at androgen receptor F877L/T877A dual mutant (unknown origin) expressed in PC-3 cells assessed as inhibition of transcriptional activity measured after 24 hrs by dual luciferase assay; type: cell-based
T3 sequence (P10275 whole entry F877L/T878A): as the sequence (P10275 whole entry F877L) above, with T878A counted along it

Androgen receptor [10] = molecular target: T2, Androgen receptor; test: Antagonist activity at androgen receptor F877L mutant in human PC-3 cells assessed as inhibition of transcriptional activity measured after 24 hrs by luminescence based microplate reader assay; type: cell-based
Androgen receptor [11] = molecular target: T3, Androgen receptor; test: Antagonist activity at androgen receptor F876L/T877A mutant in human PC-3 cells assessed as inhibition of transcriptional activity measured after 24 hrs by luminescence based microplate reader assay; type: cell-based
[12] = Antagonist activity at androgen receptor T878G mutant (unknown origin) expressed in PC-3 cells assessed as inhibition of transcriptional activity measured after 24 hrs by dual luciferase assay; type: cell-based; conditions: Homo sapiens, PC-3, 24 h
[13] = molecular target: T4, Androgen receptor (Homo sapiens) (UniProt P10275); test: Antagonist activity at human AR AF2 assessed as inhibition of fluorescent-labelled D11-FxxLF peptide Co-activator to receptor by TR-FRET assay; conditions: filed as antagonist
T4 sequence (whole entry): T1 sequence (P10275 whole entry)

LNCaP [14] = test: Antitumor activity against human LNCAP cells xenografted in CB17-SCID mouse model assessed as inhibition of tumor growth at 100 mg/kg/day, po measured upto 4 weeks; type: functional, organism-based
LNCaP [15] = test: Antitumor activity against human LNCAP cells xenografted in CB17-SCID mouse model assessed as inhibition of tumor growth at 40 mg/kg/day, po measured upto 4 weeks; type: functional, organism-based
[16] = Toxicity in CB17 SCID mouse xenografted with human LNCAP cells assessed as body weight loss at 100 mg/kg/day,po measured upto 4 weeks; type: organism-based; conditions: in vivo, 672 h

N#Cc1ccc(-n2ccc(CC(=O)Nc3ccc(F)c(F)c3)n2)cc1C(F)(F)F
IC50 (Androgen receptor [1]): 0.21 µM

N#Cc1ccc(-n2ccc(C(=O)Nc3ccc(F)nc3)n2)cc1C(F)(F)F
IC50 (Androgen receptor [1]): > 25 µM

N#Cc1ccc(C(=O)NCc2ccn(-c3ccc(C#N)c(C(F)(F)F)c3)n2)cc1
IC50 (Androgen receptor [1]): 0.3 µM

N#Cc1ccc(-n2ccc(CCCNC(=O)c3ccc([N+](=O)[O-])cc3)n2)cc1C(F)(F)F
IC50 (Androgen receptor [1]): > 25 µM

Cc1cn(-c2ccc(C#N)c(C(F)(F)F)c2)nc1CNC(=O)c1ccc([N+](=O)[O-])cc1
IC50 (Androgen receptor [1]): 0.45 µM

N#Cc1ccc(-n2ccc(CNC(=O)c3ccc(F)nc3)n2)cc1C(F)(F)F
IC50 (Androgen receptor [1]): 0.78 µM

Cc1cn(-c2ccc(C#N)c(C(F)(F)F)c2)nc1CNC(=O)c1ccc(F)cc1
IC50 (Androgen receptor [1]): 0.22 µM

CC(O)c1cc(C(=O)NCc2ccn(-c3ccc(C#N)c(C(F)(F)F)c3)n2)n[nH]1 (stereo unspecified)
IC50 (Androgen receptor [1]): > 25 µM

N#Cc1ccc(-n2ccc(CNC(=O)c3ccc(C(F)(F)F)cc3)n2)cc1C(F)(F)F
IC50 (Androgen receptor [1]): > 25 µM

N#Cc1ccc(-n2ccc(CC(=O)Nc3ccc(F)cn3)n2)cc1C(F)(F)F
IC50 (Androgen receptor [1]): 0.34 µM

N#Cc1ccc(-n2ccc(CCCNC(=O)c3ccc(F)cc3)n2)cc1C(F)(F)F
IC50 (Androgen receptor [1]): > 25 µM

N#Cc1ccc(NC(=O)c2ccn(-c3ccc(C#N)c(C(F)(F)F)c3)n2)cc1
IC50 (Androgen receptor [1]): > 25 µM

N#Cc1ccc(-n2ccc(CC(=O)Nc3ccncc3)n2)cc1C(F)(F)F
IC50 (Androgen receptor [1]): > 25 µM

CNC(=O)c1ccc(N2C(=S)N(c3ccc(C#N)c(C(F)(F)F)c3)C(=O)C2(C)C)cc1F [ENZALUTAMIDE]
IC50 (LNCaP [2]): 26.3 µM | IC50 [3]: 64.7 µM | IC50 [4]: 96.9 µM | IC50 [5]: 0.48 µM | IC50 [6]: 0.13 µM

N#Cc1ccc(-n2ccc(CC(=O)Nc3ccc(F)cc3)n2)cc1Cl
IC50 (Androgen receptor [1]): 0.22 µM

COc1ccc(NC(=O)Cc2ccn(-c3ccc(C#N)c(C(F)(F)F)c3)n2)cc1
IC50 (Androgen receptor [1]): 9.2 µM

N#Cc1ccc(NC(=O)Cc2ccn(-c3ccc(C#N)c(C(F)(F)F)c3)n2)cc1
IC50 (Androgen receptor [1]): 0.05 µM

N#Cc1ccc(-n2ccc(CNC(=O)c3ccc(Cl)cc3)n2)cc1C(F)(F)F
IC50 (Androgen receptor [1]): 1.15 µM

Cc1ccc(NC(=O)Cc2ccn(-c3ccc(C#N)c(C(F)(F)F)c3)n2)cc1
IC50 (Androgen receptor [1]): 4.53 µM

O=C(Cc1ccn(-c2ccc([N+](=O)[O-])c(C(F)(F)F)c2)n1)Nc1ccc(F)cn1
IC50 (Androgen receptor [1]): 2.57 µM

N#Cc1ccc(-n2ccc(CC(=O)Nc3ccc(F)cc3)n2)cc1C(F)(F)F
IC50 (Androgen receptor [1]): 0.12 µM | IC50 (LNCaP [2]): 5.85 µM | IC50 [3]: > 1000 µM | IC50 [4]: > 1000 µM | IC50 [5]: 3.91 µM | IC50 [6]: 4.43 µM | Kd (Androgen receptor [7]): 10 µM | IC50 (Androgen receptor [8]): 0.91 µM | IC50 (Androgen receptor [9]): 0.25 µM | IC50 (Androgen receptor [10]): 0.91 µM | IC50 (Androgen receptor [11]): 0.25 µM | IC50 [12]: 0.08 µM | Activity [13]: Active

N#Cc1ccc(-n2cc(C(F)(F)F)c(CNC(=O)c3ccc(F)cc3)n2)cc1C(F)(F)F
IC50 (Androgen receptor [1]): 16.2 µM

N#Cc1ccc(-n2ccc(CC(=O)Nc3ccc(F)nc3)n2)cc1C(F)(F)F
IC50 (Androgen receptor [1]): 0.14 µM | IC50 (LNCaP [2]): 8.84 µM | IC50 [3]: > 1000 µM | IC50 [4]: > 1000 µM | IC50 [5]: 1.75 µM | IC50 [6]: 16.3 µM | Kd (Androgen receptor [7]): 8.99 µM | IC50 (Androgen receptor [8]): 1.31 µM | IC50 (Androgen receptor [9]): 1.12 µM | IC50 (Androgen receptor [10]): 1.31 µM | IC50 (Androgen receptor [11]): 1.12 µM | IC50 [12]: 0.31 µM | Activity [13]: Active

N#Cc1ccc(-n2ccc(CC(=O)Nc3ccc([N+](=O)[O-])cc3)n2)cc1C(F)(F)F
IC50 (Androgen receptor [1]): 0.08 µM

N#Cc1ccc(-n2ccc(NC(=O)Nc3ccc(F)cc3)n2)cc1C(F)(F)F
IC50 (Androgen receptor [1]): > 25 µM

N#Cc1ccc(C(=O)NCCc2ccn(-c3ccc(C#N)c(C(F)(F)F)c3)n2)cc1
IC50 (Androgen receptor [1]): > 25 µM

N#Cc1ccc(-n2ccc(CNC(=O)c3ccc([N+](=O)[O-])cc3)n2)cc1C(F)(F)F
IC50 (Androgen receptor [1]): 1.85 µM

N#Cc1ccc(-n2ccc(CNS(=O)(=O)c3ccc(F)cc3)n2)cc1C(F)(F)F
IC50 (Androgen receptor [1]): > 25 µM

N#Cc1ccc(-n2ccc(CCNC(=O)c3ccc([N+](=O)[O-])cc3)n2)cc1C(F)(F)F
IC50 (Androgen receptor [1]): > 25 µM

N#Cc1ccc(-n2ccc(CC(=O)Nc3ccc(F)cn3)n2)cc1Cl
IC50 (Androgen receptor [1]): 0.17 µM

N#Cc1ccc(-n2ccc(C(=O)Nc3ccc(F)cc3)n2)cc1C(F)(F)F
IC50 (Androgen receptor [1]): > 25 µM

O=C(Cc1ccn(-c2ccc([N+](=O)[O-])c(C(F)(F)F)c2)n1)Nc1ccc(F)nc1
IC50 (Androgen receptor [1]): 0.36 µM

N#Cc1ccc(-n2ccc(CNC(=O)Nc3ccc(F)cc3)n2)cc1C(F)(F)F
IC50 (Androgen receptor [1]): > 25 µM

N#Cc1ccc(-n2ccc(C(=O)Nc3ccncc3)n2)cc1C(F)(F)F
IC50 (Androgen receptor [1]): > 25 µM

CC(O)c1cc(C(=O)N[C@H](C)Cn2ccc(-c3ccc(C#N)c(Cl)c3)n2)n[nH]1 (stereo partly specified)
IC50 [12]: 0.69 µM

N#Cc1ccc(-n2ccc(CNC(=O)c3ccc(F)cn3)n2)cc1C(F)(F)F
IC50 (Androgen receptor [1]): 5.82 µM

N#Cc1cc(NC(=O)Cc2ccn(-c3ccc(C#N)c(C(F)(F)F)c3)n2)ccc1F
IC50 (Androgen receptor [1]): 6.34 µM

N#Cc1ccc(-n2ccc(C(=O)Nc3ccc(F)cn3)n2)cc1C(F)(F)F
IC50 (Androgen receptor [1]): > 25 µM

CC(C)(O)c1ccc(C(=O)NCc2ccn(-c3ccc(C#N)c(C(F)(F)F)c3)n2)cc1
IC50 (Androgen receptor [1]): > 25 µM

N#Cc1ccc(-n2cc(-c3ccccc3)c(CNC(=O)c3ccc(F)cc3)n2)cc1C(F)(F)F
IC50 (Androgen receptor [1]): > 25 µM

N#Cc1ccc(-n2ccc(CNC(=O)c3ccc(F)cc3)n2)cc1C(F)(F)F
IC50 (Androgen receptor [1]): 0.76 µM

Cc1cn(-c2ccc(C#N)c(C(F)(F)F)c2)nc1CNC(=O)c1ccc(C#N)cc1
IC50 (Androgen receptor [1]): 14.9 µM

O=C(Cc1ccn(-c2ccc([N+](=O)[O-])c(C(F)(F)F)c2)n1)Nc1ccc(F)cc1
IC50 (Androgen receptor [1]): 0.34 µM

N#Cc1ccc(-n2ccc(CCNC(=O)c3ccc(F)cc3)n2)cc1C(F)(F)F
IC50 (Androgen receptor [1]): > 25 µM

CNC(=O)c1ccc(C(=O)NCc2ccn(-c3ccc(C#N)c(C(F)(F)F)c3)n2)cc1F
IC50 (Androgen receptor [1]): > 25 µM

N#Cc1ccc(-n2ccc(NC(=O)c3ccc(F)cc3)n2)cc1C(F)(F)F
IC50 (Androgen receptor [1]): > 25 µM

N#Cc1ccc(-n2ccc(CC(=O)Nc3ccc(F)nc3)n2)cc1Cl
IC50 (Androgen receptor [1]): 0.069 µM | IC50 (LNCaP [2]): 6.23 µM | IC50 [3]: > 1000 µM | IC50 [4]: > 1000 µM | IC50 [5]: 0.89 µM | IC50 [6]: 5.54 µM | Kd (Androgen receptor [7]): 20.5 µM | IC50 (Androgen receptor [8]): 0.46 µM | IC50 (Androgen receptor [9]): 0.27 µM | IC50 (Androgen receptor [10]): 0.17 µM | IC50 (Androgen receptor [11]): 0.27 µM | IC50 [12]: 0.045 µM | Activity [13]: Active | Activity (LNCaP [14]): Active | Activity (LNCaP [15]): Active | Activity [16]: Non-Toxic

N#Cc1ccc(C(=O)NCCCc2ccn(-c3ccc(C#N)c(C(F)(F)F)c3)n2)cc1
IC50 (Androgen receptor [1]): > 25 µM
